Test results reported in article PMC11157491, “Novel Alaninamide Derivatives with Drug-like Potential for Development as Antiseizure and Antinociceptive Therapies—In Vitro and In Vivo Characterization” (ACS Chemical Neuroscience, 2024).

Assays:
mice [1] = test: Maximal electroshock (MES) seizure test; type: in vivo
Source text: (§1) Identification and profiling of new ASM candidate compounds are still largely based on predictive animal models of seizures/epilepsy, while a range of in silico and in vitro approaches (i.e., molecular modeling or high throughput screening, etc.) are increasingly used in the early stages of ASM discovery.[31] The Epilepsy Therapy Screening Program (ETSP) of the National Institute of Neurological Disorders and Stroke (NIH, Bethesda, MD) has enabled the discovery of several approved ASMs by focusing on the in vivo testing of compounds synthesized by both academic laboratories and industry.[32] The ETSP provides a broad panel of seizure tests (ca. 30 rodent models), but a subset of them is used for the initial screening of new compounds with potential antiseizure activity. The routinely used seizure models include: (i) the MES test, which is an experimental model of tonic–clonic seizures, (ii) the 6 Hz model (32 mA) of focal seizures, and (iii) the scPTZ model of generalized absence or myoclonic seizures.[33],[34] Consequently, in the current studies, all final compounds 21–36 and 45–48 were initially studied in the MES and the 6 Hz (32 mA) seizure models after intraperitoneal (i.p.) administration at a screening dose of 100 mg/kg in mice at a time point of 0.5 h (the screening group consisted of four mice, and the results obtained are summarized in Table S1).
(§2) These parameters were then used to calculate the protective indexes (PIs, PI = TD50/ED50), which describe the therapeutics window of potential drug candidates. The ED50, TD50, and PI values for the tested compounds together with data of their chemical prototypes KA-11 and KJ-5 and reference ASMs are summarized in Table 2.
(§3) The adult male Albino Swiss mice weighed between 22 and 26 g were used in the in vivo studies. They were housed under standardized housing conditions in colony cages and had free access to food as well as tap water. The animals were left to adapt under laboratory conditions for 7 days. All procedures involving animals and their care were performed in accordance with the current European Community and Polish legislation on animal experimentation.
(§4) In the initial screening studies, four mice per group were randomly assigned to each experimental group (each mouse was used only once). To evaluate the ED50 or TD50 values, four groups consisting of eight animals were injected with various doses of tested compounds. The protective indexes (PIs) for the compounds investigated and reference ASMs were calculated by dividing the TD50 value, as determined in the chimney test, by the respective ED50 value, as determined in the MES, scPTZ, or 6 Hz (32 or 44 mA) tests (PI = TD50/ED50). The PIs are a measure of the potential therapeutic window of the tested agent.
(§5) All substances were suspended in Tween 80 (1% aqueous solution) and administered i.p. as a single injection at a dose of 10 mL/kg. On each day of experimentation, fresh solutions were prepared. The detailed in vivo procedures are described elsewhere: the maximal electroshock seizure test (MES),[60] the subcutaneous pentylenetetrazole seizure test (scPTZ),[61] the 6 Hz psychomotor seizure model (32 and 44 mA),[62] and the chimney test.[63] The reference ASMs were purchased from commercial suppliers: VPA (Sigma-Aldrich, St. Louis, MO), LCS, and LEV (UCB Pharma, Braine l’Alleud, Belgium).

mice [2] = test: 6 Hz (32 mA) psychomotor seizure model; type: in vivo; settings: Mus musculus, ip; for responders at 100 mg/kg: 100 mg/kg i.p., 0.5 h
Source text: as §1, §2, §3, §4, §5

mice [3] = test: Subcutaneous pentylenetetrazole (scPTZ) seizure test; type: in vivo; settings: 100 mg/kg i.p.
Source text: as §2, §4, §5

TRPV1 (VR1) (h) = biological target: T1, TRPV1 (VR1) (h) (Homo sapiens, UniProt Q8NER1); test: TRPV1 antagonist effect functional assay; type: cell-based; settings: 10 μM, human recombinant CHO cells; read-out: % inhibition of control agonist response
T1 construct: Eurofins (contract assay)
Procedure: For many years, the TRPV1 channel, permeable to calcium and sodium ions, has been recognized as a promising molecular target for novel analgesics.[19] […] Therefore, bearing in mind the involvement of TRPV1 in pain sensation and potentially in seizure induction, in the next step of the in vitro studies, the TRPV1 antagonist activity was determined for all compounds obtained (Table 6).
Binding/functional studies were carried out commercially in Eurofins Laboratories (Poitiers, France) and Eurofins Panlabs Discovery Services Taiwan, Ltd. (New Taipei City, Taiwan) using testing procedures that were reported previously (for details, see Table S2).
Table S2. Radioligand binding and functional assays. […]
TRPV1 (VR1) (h) (antagonist effect) […]
Assays were performed commercially in Eurofins Laboratories ( Poitiers, France) or Eurofins Panlabs Discovery Services
Taiwan, Ltd. (New Taipei City, Taiwan).

T1 sequence (Q8NER1 whole entry): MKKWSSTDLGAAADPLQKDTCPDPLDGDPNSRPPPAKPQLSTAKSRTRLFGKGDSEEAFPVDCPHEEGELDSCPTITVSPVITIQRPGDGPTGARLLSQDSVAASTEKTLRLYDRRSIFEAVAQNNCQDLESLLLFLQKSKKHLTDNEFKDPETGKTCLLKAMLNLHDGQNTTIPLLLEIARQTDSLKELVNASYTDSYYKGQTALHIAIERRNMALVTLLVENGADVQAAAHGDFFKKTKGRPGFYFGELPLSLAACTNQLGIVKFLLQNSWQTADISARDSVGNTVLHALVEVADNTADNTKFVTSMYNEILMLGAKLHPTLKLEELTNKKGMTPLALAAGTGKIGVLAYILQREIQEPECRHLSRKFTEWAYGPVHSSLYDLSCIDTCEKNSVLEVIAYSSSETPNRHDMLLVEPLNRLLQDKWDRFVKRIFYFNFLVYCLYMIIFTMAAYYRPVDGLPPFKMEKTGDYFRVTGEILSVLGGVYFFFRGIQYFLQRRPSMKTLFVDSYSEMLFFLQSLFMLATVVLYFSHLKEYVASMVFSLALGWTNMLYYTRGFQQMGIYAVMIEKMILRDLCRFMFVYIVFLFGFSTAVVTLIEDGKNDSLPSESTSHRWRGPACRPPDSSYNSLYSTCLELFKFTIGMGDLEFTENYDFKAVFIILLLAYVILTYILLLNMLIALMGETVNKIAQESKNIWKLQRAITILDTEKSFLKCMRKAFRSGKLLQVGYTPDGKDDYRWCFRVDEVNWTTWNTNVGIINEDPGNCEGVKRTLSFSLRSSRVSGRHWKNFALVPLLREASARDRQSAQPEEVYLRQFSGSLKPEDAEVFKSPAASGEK

- inhibition at 10 µM (TRPV1 (VR1) (h)): 8.1%
- melting point: 164.6 to 165.4 °C
Compound: CC(=O)NC(C)C(=O)N1CCN(c2cc(Cl)cc(Cl)c2)CC1 (stereo not shown) [Compound 25, N-(1-(4-(3,5-Dichlorophenyl)piperazin-1-yl)-1-oxopropan-2-yl)acetamide]
- antiseizure protection in MES screening (mice [1]; 100 mg/kg i.p., 0.5 h, four mice): 75%
- responders at 100 mg/kg (mice [1]; Mus musculus, ip, 100 mg/kg i.p., 0.5 h, read-out: MES: number of mice protected/number of mice tested (converted)): 75%
- ED50 (mice [1]; Mus musculus, ip, mice, pretreatment 0.5 h): 52.9 mg/kg
- responders at 100 mg/kg (mice [2]; four mice, read-out: protection in 6 Hz (32 mA) screening): 75%
- responders at 100 mg/kg (mice [2]; read-out: 6 Hz (32 mA): number of mice protected/number of mice tested (converted)): 75%
- ED50 (mice [2]; mice, pretreatment 0.5 h): 56.1 mg/kg
- protection in scPTZ screening (mice [3]): 50%
- scPTZ: number of mice protected/number of mice tested (mice [3]; 0.5 h): 2/4
